# Test results as given in patent US6667387B1, “HCV core peptides” (priority 1992, dated 2003).
# Ends that are not written are not given here. * marks the point of attachment. Biotin = O=C1N[C@H]2[C@H](CS[C@H]2CCCCC(=O)*)N1
# Tests used:
# Assay type in all cases: binding, human
# [1] = tested on: antibodies in antisera from HIV-2 infected persons; assay: ELISA with HIV-2 antibody-positive sera (biotinylated peptides on streptavidin- or avidin-coated plates, unbiotinylated peptides coated directly); conditions: for number borderline / number negative / number positive / percent borderline / percent negative / percent positive: Table 17, HIV-2 positive sera, 21 tested
# Description: (§1) Where peptides were to be coated directly, stock solutions of the peptides were diluted in sodium carbonate buffer, pH 9.6 and used to coat polystyrene microtiter plates at a peptide concentration of 2 to 5 micrograms per milliliter for 1 hour at 37° C.
# (§2) In cases where biotinylated peptides were to be evaluated, plates were first coated with streptavidin in sodium carbonate buffer, pH 9.6 at a concentration of 3 micrograms per milliliter for 1 hour at 37° C. The plates were then washed to remove excess, unbound protein. A working solution of the biotinylated peptide at 1 microgram per milliliter in sodium carbonate buffer was then added to the wells of the microtiter plate and incubated for 1 hours at 37° C.
# (§3) Once the plates had been coated with antigen, any remaining free binding sites on the plastic were blocked with casein. After washing, a dilution of the appropriate antisera, usually 1:100, was added to the wells of the plates and incubated for 1 hour at 37° C.
# (§4) After washing to remove unbound material, specific antibody binding was detected by incubating the plates with goat anti-human immunoglobulin antibodies conjugated to the enzyme horseradish peroxidase. Following removal of unbound conjugate by washing, a solution containing H2O2 and 3,3′,5,5′-tetramethylbenzidine was added.
# (§5) Reactions were stopped after a suitable interval by addition of sulfuric acid. […] Absorbance measurements were made at a wavelength of 450 nanometers and all data are expressed as an optical density value at this wavelength.
# The biotinylated peptides were loaded onto microtiter plates which had been coated with streptavidin. Antibody binding to these peptides was compared to antibody binding to the unibiotinylated peptides which were coated directly onto microtiter plates. It is evident that the biotinylated peptides from the HIV-1 or HIV-2 transmembrane proteins bound to streptavidin are recognized very well by antisera from HIV-1 or HIV-2 infected persons respectively. This is in contrast to the unbiotinylated versions of these peptides coated directly onto the polystyrene plates.
# (§6) To determine how well biotinylated peptides would function in a mixture when bound to streptavidin- or avidin-coated plates, two mixtures were made of the N-terminally biotinylated versions of the HIV-1 peptides TM-HIV-1 (hereabove referred to as 1a.1) and V3-nm (hereabove referred to as 1b.4), the HIV-2 peptide TM-HIV-2 (hereabove referred to as 2a), and the hepatitis C virus peptides II, IX, and XVIII. Mixture A contained each of the six biotinylated peptides at a concentration of 1 microgram per milliliter (6 micrograms per milliliter peptide, total) while in mixture B, each peptide was present at a concentration of 0.1 microgram per milliliter (0.6 microgram per milliliter peptide, total). The individual peptides were coated at a concentration of 1 microgram per milliliter. For purposes of comparison, mixtures A and B were also coated directly onto the wells of a microtiter plate. Samples from HIV-1, HIV-2, and HCV-seropositive donors were tested and compared to sera from seronegative blood donors. A cut-off absorbance value of 0.250 was used to determine whether a reaction was positive or negative. Absorbance values equal or greater than 0.250 were considered positive while absorbance values below this value were considered negative.
# Two glycine residues were added at the N-terminus of each peptide to serve as a spacer and a biotin was coupled to the α-amino group of the resulting N-terminal glycine. The peptides were bound to streptavidin and coated in the wells of microwell plates. HIV-2 antibody-positive sera were used to evaluate these two peptides in an ELISA.
# [2] = tested on: antibodies in antisera from HIV-1 infected persons; assay: ELISA with HIV-1 antibody-positive sera (biotinylated peptides on streptavidin- or avidin-coated plates, unbiotinylated peptides coated directly)
# Description: as §1, §2, §3, §4, §5
# Experiments were performed to evaluate antibody recognition of short, 10 amino acid-long, N-acetylated peptides corresponding to other contained within the transmembrane proteins of HIV-1 and HIV-2. […] The peptides used for the comparison were as follows:
# Antibody binding to these peptides was compared to antibody binding to the unibiotinylated peptides which were coated directly onto microtiter plates.
# In order to evaluate antibody recognition of these two peptides, the peptides were bound individually to streptavidin-coated microtiter plates and tested using a panel of antisera from HIV-1 seropositive donors.
# as §6
# A spacer consisting of two glycine residues was added to the amino terminus.
# [3] = ELISA with seronegative / negative control sera (specificity)
# In short: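 Specificity readout is OD at 450 nm (HRP goat anti-human Ig, TMB/H2O2, sulfuric acid stop), with ≥0.250 counted positive. Seronegative donor sera (typically 1:100, 1 h, 37° C) were applied to casein-blocked wells coated with peptide directly or via streptavidin capture of biotinylated peptide.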
# [4] = tested on: antibodies in sera from HCV-seropositive donors; assay: ELISA with HCV antibody-positive sera (biotinylated peptides on streptavidin- or avidin-coated plates, unbiotinylated peptides coated directly); conditions: Table 8, Avidin
# In short: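 Peptides coated either directly at 2–5 or 3 μg/ml in carbonate buffer pH 9.6, or biotinylated at 1 μg/ml on streptavidin-coated wells (3 μg/ml). Plates casein-blocked, then human sera (1:100 or 1:20) incubated 1 h at 37° C. Bound antibody detected with HRP anti-human Ig/TMB, read as OD450.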
# [5] = tested on: antibodies to HTLV-I and HTLV-II (serum panel PRP203); assay: Line immunoassay (LIA) with biotinylated HTLV-I and HTLV-II peptides; conditions: sample nr. 12 of panel PRP203
# Excerpt: A number of these peptides were used to prepare LIA strips for the detection of antibodies of HTLV. Several of the peptides, such as I-p19 and I-gp46-4, which are derived from regions of the HTLV-I p19 gag protein and envelope glycoprotein, respectively, are expected to be recognized by antibodies produced as a result of both HTLV-I and HTLV-II infection since these sequences are highly homologous in the two viruses. Others, such as I-gp46-3, I-gp46-6 for HTLV-I, and II-gp52-1, II-gp52-2 and II-gp52-3 for HTLV-II may be useful for detection of antibodies as well as discrimination. Since there is some homology between the HTLV-I and HTLV-II sequences, cross-reactions are to be expected. Nevertheless, the intensities of the reactions to the various peptides should reveal the identity of the virus to which the antibodies were produced.
# The LIA strips were evaluated using a commercially available serum panel (Boston Biomedia Inc., mixed titer panel, PRP203). The test results are in complete agreement with the analysis provided by distributor. […] This sample could not be differentiated using these peptides, nor could this sample be differentiated by any other test used by the distributor of the serum panel. Sample nr. […] In an additional experiment, an ELISA was performed using all 10 of the biotinylated HTLV-I and HTLV-II peptides. […]
# [6] = Table 1, serum 0724, HIV-1 positive
# [7] = Table 1, serum PL, HIV-1 positive
# [8] = Table 1, serum VE, HIV-1 positive
# [9] = Table 1, serum YEMO, HIV-1 positive
# [10] = Table 1, serum mm, HIV-1 positive
# [11] = Table 1, serum 180, seronegative donor
# [12] = Table 1, serum 194, seronegative donor
# [13] = Table 1, serum 195, seronegative donor
# [14] = Table 1, serum 204, seronegative donor
# [15] = Table 1, serum 53-3, HIV-2 positive
# [16] = Table 1, serum 1400, HIV-2 positive
# [17] = Table 1, serum AG, HIV-2 positive
Substance,number borderline [1],number negative [1],number positive [1],percent borderline [1] [%],percent negative [1] [%],percent positive [1] [%],"optical density (450 nm) [2, 6]","optical density (450 nm) [2, 7]","optical density (450 nm) [2, 8]","optical density (450 nm) [2, 9]","optical density (450 nm) [2, 10]","optical density (450 nm) [3, 11]","optical density (450 nm) [3, 12]","optical density (450 nm) [3, 13]","optical density (450 nm) [3, 14]","optical density (450 nm) [1, 15]","optical density (450 nm) [1, 16]","optical density (450 nm) [1, 17]",also measured
"Asn Lys Thr Val Leu Pro Val Thr Ile Met Ser Gly Leu Val Phe His Ser Gln Pro Ile Asn Asp (NKTVLPVTIMSGLVFHSQPIND; printed: Asn Lys Thr Val Leu Pro Val Thr Ile Met Ser Gly Leu Val Phe His Ser Gln Pro Ile Asn Asp) [Peptide V2-239, HIV-2/SIV mm 239 V3; two glycine residues at the N-terminus and biotin]",2,0,19,9.5,0,90.5,–,–,–,–,–,–,–,–,–,–,–,–,–
"Ac-Ser-Trp-Gly-Cys-Ala-Phe-Arg-Gln-Val-Cys-NH2 (Ac-SWGCAFRQVC-NH2; cysteine pairing not given here) [TM-HIV-2, unbiotinylated N-acetylated decamer of the HIV-2 transmembrane protein]",–,–,–,–,–,–,0.000,0.000,0.000,0.000,0.000,0.000,0.000,0.000,0.000,0.000,0.000,0.000,–
Bio-Gly-Gly-Gly-Ser-Trp-Gly-Cys-Ala-Phe-Arg-Gln-Val-Cys-NH2 (Biotin-GGGSWGCAFRQVC-NH2; cysteine pairing not given here) [TM-HIV-2 Bio],–,–,–,–,–,–,0.000,0.000,0.000,0.000,0.000,0.000,0.000,0.000,0.000,2.365,1.982,2.323,"optical density (450 nm) ([2]; Table 8, serum 3990 (HIV-1), Avidin): 0.054; optical density (450 nm) ([2]; Table 8, serum DV (HIV-1), Avidin): 0.048; optical density (450 nm) ([2]; Table 8, serum PL (HIV-1), Avidin): 0.051; optical density (450 nm) ([2]; Table 8, serum YS (HIV-1), Avidin): 0.046; optical density (450 nm) ([3]; Table 8, serum 1782 (blood donor), Avidin): 0.057; optical density (450 nm) ([3]; Table 8, serum 1784 (blood donor), Avidin): 0.046; optical density (450 nm) ([3]; Table 8, serum 1785 (blood donor), Avidin): 0.047; optical density (450 nm) ([3]; Table 8, serum 1794 (blood donor), Avidin): 0.090; optical density (450 nm) ([4]; serum 8243 (HCV)): 0.109; optical density (450 nm) ([4]; serum 8247 (HCV)): 0.048; optical density (450 nm) ([4]; serum 8248 (HCV)): 0.046; optical density (450 nm) ([4]; serum 8269 (HCV)): 0.049; optical density (450 nm) ([4]; serum 8273 (HCV)): 0.050; optical density (450 nm) ([4]; serum 8278 (HCV)): 0.045; optical density (450 nm) ([4]; serum 8285 (HCV)): 0.163; optical density (450 nm) ([4]; serum 8290 (HCV)): 0.047; optical density (450 nm) ([4]; serum 8291 (HCV)): 0.050; optical density (450 nm) ([1]; Table 8, serum 1400 (HIV-2), Avidin): 1.781; optical density (450 nm) ([1]; Table 8, serum AG (HIV-2), Avidin): 2.065"
"Ac-Ile-Trp-Gly-Cys-Ser-Gly-Lys-Leu-Ile-Cys-NH2 (Ac-IWGCSGKLIC-NH2; cysteine pairing not given here) [TM-HIV-1, unbiotinylated N-acetylated decamer of the HIV-1 transmembrane protein]",–,–,–,–,–,–,0.174,0.000,0.052,0.162,0.051,0.000,0.000,0.000,0.000,0.000,0.000,0.000,–
Bio Gly Gly Pro Pro Pro Pro Ser Ser Pro Thr His Asp Pro Pro Asp Ser Asp Pro Gln Ile Pro Pro Pro Tyr Val Glu Pro Thr Ala Pro Gln Val Leu (Biotin-GGPPPPSSPTHDPPDSDPQIPPPYVEPTAPQVL) [I-p19],–,–,–,–,–,–,–,–,–,–,–,–,–,–,–,–,–,–,LIA reaction [5]: positive reaction
"Asn Lys Thr Val Val Pro Ile Thr Leu Met Ser Gly Leu Val Phe His Ser Gln Pro Ile Asn Lys (NKTVVPITLMSGLVFHSQPINK; printed: Asn Lys Thr Val Val Pro Ile Thr Leu Met Ser Gly Leu Val Phe His Ser Gln Pro Ile Asn Lys) [Peptide V3-GB12, HIV-2 V3; two glycine residues at the N-terminus and biotin]",0,0,21,0,0,100,–,–,–,–,–,–,–,–,–,–,–,–,–
